Laboratory results: patent US12692269B2, “Therapeutic compounds” (Genentech, Inc., priority 2019, dated 2026)

Tests used:
Assay type in all cases: binding
[1] = target: TEAD2 TAZ (amino acids 13-57) (Homo sapiens, UniProt Q15562); experiment: TEAD2-TAZ HTRF (TR-FRET) protein-protein interaction assay; conditions: for TEAD2 TAZ HTRF combined: Max % Inhibition: TEAD2, TAZ peptide; for EC50: TEAD2-TAZ HTRF, TR-FRET 665 nm/615 nm, read-out: TEAD2 TAZ HTRF combined: EC50
Experimental: (§1) Purified His-tagged TEAD protein (YAP Binding Domain, amino acids 217-447) is pre-incubated with Europium labelled anti-His antibody tracer (Perkin Elmer Cat #AD0110). Small molecule Inhibitors are then incubated with the TEAD-Eu protein complex for 30 minutes to allow for binding to TEAD protein. Biotinylated YAP peptide for TEAD-YAP assays (AA's 50-100) or biotinylated TAZ peptide for TEAD-TAZ assays (AA's 13-57) that has been pre-incubated with streptavidin-xl665 acceptor (CIS-Bio Cat #610SAXAC) or is added to the compound-TEAD mix. The TEAD-YAP-inhibitor mixture is then incubated for 60 minutes at room temperature. All reactions are carried out in a polystyrene plate. After 60 minutes, the plate is read on a plate reader using TR-FRET mode with wavelengths of 665 nm/615 nm. If YAP or TAZ binds to TEAD as expected, a TR-FRET signal results from the proximity of YAP or TAZ and TEAD after binding. If an inhibitor such as peptide 17 (Selleckchem Cat #58164) interferes with YAP-TEAD or TAZ-TEAD binding, the disruption of the YAP or TAZ:TEAD interaction results in a decrease in TR-FRET signal. The potency of compounds as YAP:TEAD or TAZ:TEAD protein-protein interaction (PPi) inhibitors is determined by an IC50 or EC50 value generated using a non-linear four parameter curve fit.

[2] = target: TEAD3 TAZ (amino acids 13-57) (Homo sapiens, UniProt Q99594); experiment: TEAD3-TAZ HTRF (TR-FRET) protein-protein interaction assay; conditions: for TEAD3 TAZ HTRF combined: Max % Inhibition: TEAD3, TAZ peptide; for EC50: TEAD3-TAZ HTRF, TR-FRET 665 nm/615 nm, read-out: TEAD3 TAZ HTRF combined: EC50
Experimental: as §1

[3] = target: TEAD1 TAZ (amino acids 13-57) (Homo sapiens, UniProt P28347); experiment: TEAD1-TAZ HTRF (TR-FRET) protein-protein interaction assay; conditions: for TEAD1 TAZ HTRF combined: Max % Inhibition: TEAD1, TAZ peptide; for EC50: TEAD1-TAZ HTRF, TR-FRET 665 nm/615 nm, read-out: TEAD1 TAZ HTRF combined: EC50
Experimental: as §1

TEAD3 YAP50-100 = TEAD3 YAP50-100 (Homo sapiens, UniProt Q99594); experiment: TEAD3-YAP HTRF (TR-FRET) protein-protein interaction assay; conditions: TEAD3, YAP peptide 50-100, HTRF; for EC50: read-out: TEAD3 YAP50-100 HTRF combined: EC50
Experimental: as §1

TEAD1 YAP50-100 = TEAD1 YAP50-100 (Homo sapiens, UniProt P28347); experiment: TEAD1-YAP HTRF (TR-FRET) protein-protein interaction assay; conditions: TEAD1, YAP peptide 50-100, HTRF; for EC50: read-out: TEAD1 YAP50-100 HTRF combined: EC50
Experimental: as §1

TEAD2 YAP50-100 = TEAD2 YAP50-100 (Homo sapiens, UniProt Q15562); experiment: TEAD2-YAP HTRF (TR-FRET) protein-protein interaction assay; conditions: TEAD2, YAP peptide 50-100, HTRF; for EC50: read-out: TEAD2 YAP50-100 HTRF combined: EC50
Experimental: as §1

[4] = target: TEAD4 TAZ (amino acids 13-57) (Homo sapiens, UniProt Q15561); experiment: TEAD4-TAZ HTRF (TR-FRET) protein-protein interaction assay; conditions: for TEAD4 TAZ HTRF combined: Max % Inhibition: TEAD4, TAZ peptide; for EC50: TEAD4-TAZ HTRF, TR-FRET 665 nm/615 nm, read-out: TEAD4 TAZ HTRF combined: EC50
Experimental: as §1

TEAD4 YAP50-100 = TEAD4 YAP50-100 (Homo sapiens, UniProt Q15561); experiment: TEAD4-YAP HTRF (TR-FRET) protein-protein interaction assay; conditions: TEAD4, YAP peptide 50-100, HTRF; for EC50: read-out: TEAD4 YAP50-100 HTRF combined: EC50
Experimental: as §1

TEAD3 TAZ (amino acids 13-57), sequence (Q99594 173-435 limits assumed): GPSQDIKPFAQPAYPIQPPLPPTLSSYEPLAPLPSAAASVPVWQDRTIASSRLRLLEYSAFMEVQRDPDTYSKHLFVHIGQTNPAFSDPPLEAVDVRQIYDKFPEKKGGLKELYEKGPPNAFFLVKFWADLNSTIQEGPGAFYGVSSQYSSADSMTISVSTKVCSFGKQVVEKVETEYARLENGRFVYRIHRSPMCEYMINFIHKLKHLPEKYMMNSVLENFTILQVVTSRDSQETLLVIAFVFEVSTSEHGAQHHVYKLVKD
TEAD3 YAP50-100, sequence (Q99594 173-435 limits assumed): as above
TEAD2 TAZ (amino acids 13-57), sequence (Q15562 217-447): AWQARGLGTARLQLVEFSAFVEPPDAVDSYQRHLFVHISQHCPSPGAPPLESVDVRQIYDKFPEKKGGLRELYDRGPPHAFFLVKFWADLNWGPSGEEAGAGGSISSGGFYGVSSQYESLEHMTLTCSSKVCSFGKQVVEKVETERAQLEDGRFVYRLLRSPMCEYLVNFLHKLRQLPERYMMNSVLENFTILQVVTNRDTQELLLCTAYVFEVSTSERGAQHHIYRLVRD
TEAD2 YAP50-100, sequence (Q15562 217-447): as above
TEAD1 YAP50-100, sequence (P28347 167-426 limits assumed): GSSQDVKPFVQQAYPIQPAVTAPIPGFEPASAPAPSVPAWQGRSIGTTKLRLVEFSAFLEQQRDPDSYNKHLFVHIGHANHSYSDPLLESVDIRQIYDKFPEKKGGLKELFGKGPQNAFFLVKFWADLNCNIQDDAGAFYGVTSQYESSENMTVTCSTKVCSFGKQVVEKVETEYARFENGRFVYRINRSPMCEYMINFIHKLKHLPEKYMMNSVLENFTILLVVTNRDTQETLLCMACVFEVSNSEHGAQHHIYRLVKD
TEAD1 TAZ (amino acids 13-57), sequence (P28347 167-426 limits assumed): as above
TEAD4 YAP50-100, sequence (Q15561 217-434 limits assumed): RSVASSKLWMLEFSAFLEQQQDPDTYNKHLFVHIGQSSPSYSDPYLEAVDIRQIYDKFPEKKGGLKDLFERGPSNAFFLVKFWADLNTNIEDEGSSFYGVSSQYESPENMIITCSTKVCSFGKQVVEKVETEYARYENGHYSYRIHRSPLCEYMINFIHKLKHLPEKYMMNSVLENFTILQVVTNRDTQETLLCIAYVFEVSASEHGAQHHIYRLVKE
TEAD4 TAZ (amino acids 13-57), sequence (Q15561 217-434 limits assumed): as above

Row | TEAD2 TAZ HTRF combined: Max % Inhibition [1] [%] | EC50 [1] [µM] | TEAD3 TAZ HTRF combined: Max % Inhibition [2] [%] | EC50 [2] [µM] | TEAD1 TAZ HTRF combined: Max % Inhibition [3] [%] | EC50 [3] [µM] | TEAD3 YAP50-100 HTRF combined: Max % Inhibition (TEAD3 YAP50-100) [%] | EC50 (TEAD3 YAP50-100) [µM] | TEAD1 YAP50-100 HTRF combined: Max % Inhibition (TEAD1 YAP50-100) [%] | EC50 (TEAD1 YAP50-100) [µM] | TEAD2 YAP50-100 HTRF combined: Max % Inhibition (TEAD2 YAP50-100) [%] | EC50 (TEAD2 YAP50-100) [µM] | TEAD4 TAZ HTRF combined: Max % Inhibition [4] [%] | EC50 [4] [µM] | TEAD4 YAP50-100 HTRF combined: Max % Inhibition (TEAD4 YAP50-100) [%] | EC50 (TEAD4 YAP50-100) [µM] | SMILES
1 | 63.0 | 0.01 | 52.5 | 0.09 | 69.5 | 0.04 | 62.0 | 0.08 | 71.0 | 0.03 | 62.0 | 0.01 | 56.0 | 0.03 | 52.0 | 0.03 | Cc1ccnc(-c2nn3c(=O)cc(-c4ccc(C5CCCCC5)cc4)[nH]c3c2C(=O)N2CC(CF)C2)n1 [Compound 9, 5-(4-Cyclohexylphenyl)-3-(3-(fluoromethyl)azetidine-1-carbonyl)-2-(4-methylpyrimidin-2-yl)pyrazolo[1,5-a]pyrimidin-7(4H)-one]
2 | 57.5 | 0.02 | 57.0 | 0.21 | 64.0 | 0.11 | 60.0 | 0.21 | 69.0 | 0.14 | 58.0 | 0.02 | 48.0 | 0.06 | 45.5 | 0.07 | O=C(c1c(-c2ncccn2)nn2c(=O)cc(-c3ccc(C4CCCCC4)c(F)c3)[nH]c12)N1CC(CF)C1 [Compound 22, 5-(4-Cyclohexyl-3-fluorophenyl)-3-(3-(fluoromethyl)azetidine-1-carbonyl)-2-(pyrimidin-2-yl)pyrazolo[1,5-a]pyrimidin-7(4H)-one]
3 | 66.5 | – | 43.0 | 0.03 | 57.0 | 0.02 | 52.0 | 0.02 | 63.0 | 0.02 | 66.0 | – | 54.0 | 0.01 | 51.0 | 0.01 | O=C(c1c(-c2ncccn2)nn2c(=O)cc(-c3ccc(CC4CCCC4)cc3)[nH]c12)N1CC(CF)C1 [Compound 24, 5-(4-(Cyclopentylmethyl)phenyl)-3-(3-(fluoromethyl)azetidine-1-carbonyl)-2-(pyrimidin-2-yl) pyrazolo[1,5-a]pyrimidin-7(4H)-one]
4 | 78.5 | 0.12 | 70.0 | 0.53 | 70.0 | 0.14 | 68.0 | 0.44 | 76.0 | 0.13 | 68.0 | 0.08 | 51.0 | 2.1 | 49.5 | 2 | C[C@H]1[C@@H](CF)CN1C(=O)c1c(-c2ncccn2)nn2c(=O)cc(-c3ccc(C4CCCCC4)cc3)[nH]c12 (single isomer, unassigned) [Isomer B, Example 40]
5 | 56.5 | 0.02 | 53.5 | 0.06 | 37.5 | 0.09 | 61.5 | 0.06 | 65.0 | 0.05 | 62.0 | 0.02 | 18.0 | 0.37 | 34.5 | 0.65 | O=C(c1c(-c2cnco2)nn2c(=O)cc(-c3ccc(C4CCCCC4)cc3)[nH]c12)N1CC(CF)C1 [Compound 39, 5-(4-Cyclohexylphenyl)-3-(3-(fluoromethyl)azetidine-1-carbonyl)-2-(oxazol-5-yl)pyrazolo[1,5-a]pyrimidin-7(4H)-one]
6 | 67.5 | 0.71 | 64.5 | 6 | 70.5 | 0.52 | 71.5 | 4.95 | 73.0 | 0.41 | 69.5 | 0.71 | 14.0 | 35.5 | 17.0 | 19.5 | C[C@@H]1[C@H](CF)CN1C(=O)c1c(C(=O)N(C)C)nn2c(=O)cc(-c3ccc(C4CCCCC4)cc3)[nH]c12 [Compound 6, 5-(4-Cyclohexylphenyl)-3-((2R,3R)-3-(fluoromethyl)-2-methylazetidine-1-carbonyl)-N,N-dimethyl-7-oxo-4,7-dihydropyrazolo[1,5-a]pyrimidine-2-carboxamide]
7 | 61.0 | 0.03 | 59.0 | 0.34 | 65.5 | 0.16 | 65.5 | 0.29 | 68.0 | 0.16 | 61.5 | 0.03 | 42.5 | 0.18 | 40.0 | 0.18 | Cc1nccnc1-c1nn2c(=O)cc(-c3ccc(C4(F)CCCCC4)cc3)[nH]c2c1C(=O)N1CC(CF)C1 [Compound 59, 5-(4-(1-Fluorocyclohexyl)phenyl)-3-(3-(fluoromethyl)azetidine-1-carbonyl)-2-(3-methylpyrazin-2-yl)pyrazolo[1,5-a]pyrimidin-7(4H)-one]
8 | 64.5 | 0.01 | 59.0 | 0.08 | 59.0 | 0.05 | 69.0 | 0.07 | 69.0 | 0.04 | 64.0 | 0.01 | 36.0 | 0.15 | 48.5 | 0.2 | CN(C)C(=O)c1nn2c(=O)cc(-c3ccc(C4CCCCC4)c(F)c3)[nH]c2c1C(=O)N1CC(CF)C1 [Compound 4, 5-(4-Cyclohexyl-3-fluorophenyl)-3-(3-(fluoromethyl)azetidine-1-carbonyl)-N,N-dimethyl-7-oxo-4,7-dihydropyrazolo[1,5-a]pyrimidine-2-carboxamide]
